In ChEMBL document CHEMBL5131518, “Discovery of 2-Phenylquinolines with Broad-Spectrum Anti-coronavirus Activity” (ACS Med Chem Lett, 2022) one finds selectivity ratio, IC50 and inhibition data, which are given here for 16 compounds.

Series [1] is described as follows: in vitro. The following applies: human, HEL 299 cells.
Description: Selectivity index, ratio of CC50 for cytotoxicity against HEL 299 cells to EC50 for antiviral activity against HCoV-229E infected in HEL 299 cells
The nature of series [2]: in vitro. The following applies: monkey, Vero E6 cells.
Description: Selectivity index, ratio of CC50 for cytotoxicity against African green monkey Vero E6 cells to EC50 for antiviral activity against SARS-CoV-2 infected in eGFP expressing African green monkey Vero E6 cells
Series [3] is described as follows: Inhibition of SARS-CoV-2 RdRp expressed in Escherichia coli BL21 DE3 co-expressing […] incubated for 1 hr by fluorescent based assay. Details: species or system Severe acute respiratory syndrome coronavirus 2.
Series [4] deals with Severe acute respiratory syndrome coronavirus 2. In words: Inhibition of SARS-CoV-2 RdRp expressed in Escherichia coli BL21 DE3 co-expressing […] at 30 uM incubated for 1 hr by fluorescent bases assay.
Series [5] has as its target Replicase polyprotein 1ab (Severe acute respiratory syndrome coronavirus 2) (UniProt P0DTD1). Kind of series: Inhibition of SARS-CoV-2 nsp13 ATPase-associated activity using ATP as substrate at highest concentration of compound incubated for 30 mins by Biomol Green Reagent based assay.

For `CCCOc1ccc(-c2cc(OCCN3CCN(Cc4ccccc4)CC3)c3ccccc3n2)cc1`, the selectivity ratio in series [1] was above 1.6; in series [2], above 8.4.
`CCCOc1ccc(-c2cc(OCCN3CCCC3)c3cc(OC)c(OC)cc3n2)cc1`: the selectivity ratio in series [2] was 1.3.
Consider `CCCOc1ccc(-c2cc(OCCN3CCNCC3)c3cccc(OC)c3n2)cc1`, for which the selectivity ratio in series [1] was determined as 25.6; in series [2], 4.3.
`CCCOc1ccc(-c2cc(OCCN3CCc4cc(OC)c(OC)cc4C3)c3c(OC)cc(OC)cc3n2)cc1`: the IC50 in series [3] was above 30 µM.
For the compound `CCCOc1ccc(-c2cc(OCCN(CC)CC)c3c(OC)ccc(OC)c3n2)cc1`, the results for the selectivity ratio in series [1] and in series [2] were 13.8 and 5.3, respectively.
`CCCOc1ccc(-c2cc(OCCN3CCN(Cc4ccccc4)CC3)c3c(OC)cc(OC)cc3n2)cc1`: the selectivity ratio in series [1] was 16.4; in series [2], above 12.7. Further, the IC50 in series [3] is above 30 µM. In series [4], this compound displayed an inhibition of 100%.
Regarding `CCCOc1ccc(-c2cc(OCCN(CC)CC)c3c(OC)c(OC)c(OC)cc3n2)cc1`, in series [2], the selectivity ratio turned out to be 2.9.
`CCCOc1ccc(-c2cc(OCCN3CCCC3)c3cc(OC)cc(OC)c3n2)cc1`: the selectivity ratio was above 2.5 in series [1] and above 16.9 in series [2]. This compound returned an IC50 in series [3] above 30 µM. Further, in series [4], the inhibition was 100%.
Consider `CCCOc1ccc(-c2cc(OCCN3CCCC3)c3c(OC)ccc(OC)c3n2)cc1`, for which the selectivity ratio in series [1] is 13.4; in series [2] it was 7.9.
For `CCCOc1ccc(-c2cc(OCCN3CCCCC3)c3cc(OC)c(OC)cc3n2)cc1`, in that order: 52.4 and 4.3.
For `C=CCn1c(S)nnc1CSc1ccccc1[N+](=O)[O-]`, the inhibition in series [5] was 90%.
With `CCCOc1ccc(-c2cc(OCCN3CCN(Cc4ccccc4)CC3)c3cccc(OC)c3n2)cc1`, the selectivity ratio in series [2] was determined as 2.8.
In the case of `CCCOc1ccc(-c2cc(OCCN(CC)CC)c3cc(OC)cc(OC)c3n2)cc1`, the figures for the selectivity ratio in series [1] and in series [2] were 12.4 and above 7.7, respectively.
`CCCOc1ccc(-c2cc(OCCN(CC)CC)c3cccc(OC)c3n2)cc1`: the values for the selectivity ratio in series [1] and in series [2] were 8.2 and above 11, respectively.
`CCCOc1ccc(-c2cc(OCCN3CCCCC3)c3c(OC)ccc(OC)c3n2)cc1`: the selectivity ratio worked out at 10.2 in series [1] and 8.8 in series [2]. The compound also registered an IC50 in series [3] above 30 µM. For the same compound, in series [4], the inhibition came to 100%.
Consider `CCCOc1ccc(-c2cc(OCCN(CC)CC)c3cc(OC)c(OC)cc3n2)cc1`, for which the selectivity ratio in series [1] was 5.2; in series [2] it was 13.8.

The term IC50 denotes the point on the concentration scale where inhibition reaches its midpoint. Low readings indicate inhibition by little substance, high ones a need for much substance. Usually inhibition stands for the relative decrease from the control value, in per cent. Read a high inhibition as a strong effect.
